Measurements: the supplement of paper PMC11061612

Key:
Assay in all cases: combination Emax (second highest fraction inhibited in the dose matrix, 72 h); higher = more inhibition; extreme values may be limits of the assay
[1] = tested on: T-T (Esophageal Squamous Cell Carcinoma)
Procedure, shortened: (§1)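 Cell lines in DMEM/F12 or RPMI with 10% FBS were plated in 1536-well plates, held 24 hours at 37°C, 5% CO2, then given two-drug dose matrices for 72 hours (DMSO typically 0.2%). Viability was read by CellTiter-Glo 2.0 luminescence and scaled as inhibition from 0 (vehicle wells) to 1 (blank wells). Combination Emax is the second-highest inhibition in the matrix; Bliss excess is observed combination effect minus expected EA + EB − EA·EB, EA and EB being single-agent effects.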

[2] = tested on: CW-2 (Colorectal Carcinoma)
Procedure, shortened: as §1

[3] = tested on: DMS-114 (Small Cell Lung Carcinoma)
Procedure, shortened: as §1

[4] = tested on: NCI-H526 (Small Cell Lung Carcinoma)
Procedure, shortened: as §1

[5] = tested on: ST486 (Burkitt's Lymphoma)
Procedure, shortened: as §1

[6] = tested on: NCI-H520 (Squamous Cell Lung Carcinoma)
Procedure, shortened: as §1

[7] = tested on: VMRC-RCZ (Kidney Carcinoma)
Procedure, shortened: as §1

[8] = tested on: CHSA8926 (Chondrosarcoma)
Procedure, shortened: as §1

[9] = tested on: SU-DHL-5 (B-Cell Non-Hodgkin's Lymphoma)
Procedure, shortened: as §1

[10] = tested on: KY821 (Acute Myeloid Leukemia)
Procedure, shortened: as §1

[11] = tested on: HCC1187 (Breast Carcinoma)
Procedure, shortened: as §1

[12] = tested on: SK-GT-4 (Esophageal Adenocarcinoma)
Procedure, shortened: as §1

M059J (Glioblastoma) = tested on: M059J (Glioblastoma)
Procedure, shortened: as §1

[13] = tested on: JHH-4 (Hepatocellular Carcinoma)
Procedure, shortened: as §1

[14] = tested on: SNU-398 (Hepatocellular Carcinoma)
Procedure, shortened: as §1

[15] = tested on: NCCIT (Other Solid Carcinomas)
Procedure, shortened: as §1

[16] = tested on: H9 (T-Cell Non-Hodgkin's Lymphoma)
Procedure, shortened: as §1

[17] = tested on: HCC1419 (Breast Carcinoma)
Procedure, shortened: as §1

RD (Rhabdomyosarcoma) = tested on: RD (Rhabdomyosarcoma)
Procedure, shortened: as §1

[18] = tested on: DAN-G (Pancreatic Carcinoma)
Procedure, shortened: as §1

Row | SMILES | combination Emax [1] | combination Emax [2] | combination Emax [3] | combination Emax [4] | combination Emax [5] | combination Emax [6] | combination Emax [7] | combination Emax [8] | combination Emax [9] | combination Emax [10] | combination Emax [11] | combination Emax [12] | combination Emax (M059J (Glioblastoma)) | combination Emax [13] | combination Emax [14] | combination Emax [15] | combination Emax [16] | combination Emax [17] | combination Emax (RD (Rhabdomyosarcoma)) | combination Emax [18]
1 | COc1cccc(OCCCN)c1-c1cc(Nc2cnc(C#N)cn2)n[nH]1 [Prexasertib] + CN(C)CCCOc1ccc(-c2ccc3ncc4c(c3c2)n(C2CCOCC2)c(=O)n4C)cn1 [AZD0156] (first compound max 1 µM, 7x7, partner max 1 µM) | 0.597 | 0.401 | 0.408 | 0.895 | 0.991 | 0.775 | 0.342 | 0.288 | 1 | 1 | 0.645 | 0.724 | 0.658 | 0.529 | 0.436 | 0.833 | 1 | 0.258 | 0.536 | 0.824
2 | CN(CCO)CC[C@H](CSc1ccccc1)Nc1ccc(S(=O)(=O)NC(=O)c2ccc(N3CCC([C@@H](O)c4ccccc4-c4ccc(Cl)cc4)CC3)cc2)cc1S(=O)(=O)C(F)(F)F [AZD4320] + C[C@@H](Nc1cc(F)cc(F)c1)c1cc(C(=O)N(C)C)cc2c(=O)cc(N3CCOCC3)oc12 [AZD8186] (first compound max 1 µM, 7x7, partner max 3 µM) | 0.305 | 0.149 | 0.362 | 0.973 | 0.887 | 0.688 | 0.397 | 0.863 | 0.99 | 1 | 0.35 | 0.415 | 0.306 | 0.34 | 0.273 | 0.329 | 0.958 | 0.342 | 0.887 | 0.344
3 | CN(CCO)CC[C@H](CSc1ccccc1)Nc1ccc(S(=O)(=O)NC(=O)c2ccc(N3CCC([C@@H](O)c4ccccc4-c4ccc(Cl)cc4)CC3)cc2)cc1S(=O)(=O)C(F)(F)F [AZD4320] + C=CCn1c(=O)c2cnc(Nc3ccc(N4CCN(C)CC4)cc3)nc2n1-c1cccc(C(C)(C)O)n1 [AZD1775] (first compound max 1 µM, partner max 1 µM) | 0.523 | 0.324 | 0.373 | 0.972 | 1 | 0.76 | 0.39 | 0.852 | 1 | 1 | 0.549 | 0.349 | 0.783 | 0.688 | 0.739 | 0.878 | 1 | 0.0041 | 0.92 | 0.904
4 | Cn1cnc2c(F)c(Nc3ccc(Br)cc3Cl)c(C(=O)NOCCO)cc21 [Selumetinib] + CC(C)n1c(=O)n(C)c2cnc3cc(F)c(-c4ccc(OCCCN5CCCCC5)nc4)cc3c21 [AZD1390] (first compound max 10 µM, 7x7, partner max 0.3 µM) | 0.264 | 0.252 | 0.199 | 0.0826 | 0.455 | 0.147 | 0.101 | 0.185 | 0.299 | 0.66 | 0.179 | 0.516 | 0.107 | 0.605 | 0.278 | 0.0608 | 0.978 | 0.152 | 0.24 | 0.15
5 | C[C@@H](c1ccc2nccn2c1)n1nnc2ncc(-c3cnn(C)c3)nc21 [Savolitinib] + Cc1c2c(nn1C)CSCc1cc(n(C)n1)CSc1cc(c3ccccc3c1)OCCCc1c(C(=O)O)n(C)c3c-2c(Cl)ccc13 [AZD5991] (first compound max 1 µM, 7x7, partner max 1 µM) | 0.836 | 0.157 | 0.551 | 0.43 | 0.483 | 0.208 | 0.134 | 0.318 | 1 | 1 | 1 | 0.14 | 0.204 | 0.182 | 0.936 | 0.457 | 0.342 | 0.255 | 0.21 | 0.195
6 | CN(CCO)CC[C@H](CSc1ccccc1)Nc1ccc(S(=O)(=O)NC(=O)c2ccc(N3CCC([C@@H](O)c4ccccc4-c4ccc(Cl)cc4)CC3)cc2)cc1S(=O)(=O)C(F)(F)F [AZD4320] + CN(C)CCCOc1ccc(-c2ccc3ncc4c(c3c2)n(C2CCOCC2)c(=O)n4C)cn1 [AZD0156] (first compound max 1 µM, 7x7, partner max 1 µM) | 0.158 | 0.136 | 0.12 | 0.925 | 0.911 | 0.474 | 0.13 | 0.46 | 0.512 | 1 | 0.154 | 0.188 | 0.366 | 0.293 | 0.191 | 0.174 | 0.996 | 0.245 | 0.632 | 0.346
7 | CC1(C)CCC(CN2CCN(c3ccc(C(=O)NS(=O)(=O)c4ccc(NCC5CCOCC5)c([N+](=O)[O-])c4)c(Oc4cnc5[nH]ccc5c4)c3)CC2)=C(c2ccc(Cl)cc2)C1 [Venetoclax] + COc1cc(Nc2ncc3c(n2)-c2ccc(Cl)cc2C(c2c(F)cccc2OC)=NC3)ccc1C(=O)O [Alisertib] (first compound max 1 µM, 7x7, partner max 10 µM) | 0.487 | 0.16 | 0.555 | 0.852 | 0.909 | 0.54 | 0.21 | 0.531 | 0.803 | 1 | 0.744 | 0.444 | 0.636 | 0.602 | 0.498 | 0.51 | 0.802 | 0.15 | 0.543 | 0.425
8 | Cc1c2c(nn1C)CSCc1cc(n(C)n1)CSc1cc(c3ccccc3c1)OCCCc1c(C(=O)O)n(C)c3c-2c(Cl)ccc13 [AZD5991] + CC1(C)CCC(CN2CCN(c3ccc(C(=O)NS(=O)(=O)c4ccc(NCC5CCOCC5)c([N+](=O)[O-])c4)c(Oc4cnc5[nH]ccc5c4)c3)CC2)=C(c2ccc(Cl)cc2)C1 [Venetoclax] (first compound max 1 µM, 7x7, partner max 1 µM) | 0.908 | 0.151 | 0.911 | 1 | 0.974 | 0.201 | 0.21 | 0.506 | 1 | 1 | 0.997 | 0.2 | 0.347 | 0.265 | 1 | 0.692 | 0.693 | 0.275 | 0.553 | 0.247
9 | Cc1cc2ncnn2cc1Nc1ncc2c(n1)n(C1CCOCC1)c(=O)n2C [AZD7648] + C[C@@H]1COCCN1C2=NC(=NC(=C2)C3(CC3)[S@](=N)(=O)C)C4=C5C=CNC5=NC=C4 [AZD6738] (first compound max 10 µM, 7x7, partner max 10 µM) | 0.531 | 0.461 | 0.54 | 0.637 | 0.893 | 0.771 | 0.388 | 0.428 | 1 | 0.92 | 0.278 | 0.576 | 0.514 | 0.276 | 0.46 | 0.641 | 0.964 | 0.327 | 0.246 | 0.643
10 | CC1(C)CCC(CN2CCN(c3ccc(C(=O)NS(=O)(=O)c4ccc(NCC5CCOCC5)c([N+](=O)[O-])c4)c(Oc4cnc5[nH]ccc5c4)c3)CC2)=C(c2ccc(Cl)cc2)C1 [Venetoclax] + C1CN(CCC1(C(=O)N[C@@H](CCO)C2=CC=C(C=C2)Cl)N)C3=NC=NC4=C3C=CN4 [Capivasertib] (first compound max 1 µM, 7x7, partner max 3 µM) | 0.221 | 0.163 | 0.24 | 0.769 | 0.759 | 0.609 | 0.206 | 0.331 | 0.915 | 1 | 0.183 | 0.484 | 0.396 | 0.119 | 0.217 | 0.398 | 0.541 | 0.53 | 0.198 | 0.195
11 | CN(C)CCCOc1ccc(-c2ccc3ncc4c(c3c2)n(C2CCOCC2)c(=O)n4C)cn1 [AZD0156] + CCN(CCO)CCCOc1ccc2c(Nc3cc(CC(=O)Nc4cccc(F)c4)[nH]n3)ncnc2c1 [AZD2811] (first compound max 1 µM, 7x7, partner max 1 µM) | 0.0991 | 0.123 | 0.232 | 0.373 | 0.913 | 0.458 | 0.078 | 0.214 | 0.931 | 0.559 | 0.844 | 0.192 | 0.338 | 0.095 | 0.339 | 0.17 | 0.727 | 0.118 | 0.0353 | 0.321
12 | CC1(C)CCC(CN2CCN(c3ccc(C(=O)NS(=O)(=O)c4ccc(NCC5CCOCC5)c([N+](=O)[O-])c4)c(Oc4cnc5[nH]ccc5c4)c3)CC2)=C(c2ccc(Cl)cc2)C1 [Venetoclax] + Cc1cc2ncnn2cc1Nc1ncc2c(n1)n(C1CCOCC1)c(=O)n2C [AZD7648] (first compound max 1 µM, 7x7, partner max 10 µM) | 0.172 | 0.163 | 0.315 | 0.657 | 0.69 | 0.54 | 0.112 | 0.359 | 0.687 | 0.956 | 0.142 | 0.374 | 0.279 | 0.208 | 0.29 | 0.289 | 0.396 | 0.383 | 0.183 | 0.363
